Source: article PMC5078989, “Targeted inhibition of the COP9 signalosome for treatment of cancer” (Nature Communications, 2016)

Tested on: panel of cancer cell lines
Assay: Cell viability (CellTiter-Glo) dose-response across cancer cell line panel;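 note: after 72 h compound incubation with CellTiter-Glo ATP readout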
Assay type: cell-based, human
Details: Homo sapiens
Description: Next, we explored the effect of CSN5 inhibition on the viability of cancer cells. To obtain a comprehensive picture, we generated dose–response curves with a CSN5 inhibitor across more than 500 cancer cell lines in a previously described standardized setting[47] (Supplementary Data 1).
A standardized CellTiter-Glo Assay (Promega #G7570) based on the quantification of ATP was applied according to the manufacturer's protocol to measure the amount of viable cells in culture. In brief, cells were seeded into 384-well plates at optimal density for each cell line. After 4 h, compounds were added at different concentrations in growth medium and incubated for another 72 h in a humidifying chamber at 37 °C and 5% CO2. […] EC50 values were calculated from the plot of percentage of inhibition versus inhibitor concentration using the nonlinear regression analysis software Origin 7.5SR6 (OriginLab Corp.).

COCc1ccccc1NCc1ccc([C@@H]2[C@H](O)CCCc3cncn32)c(-c2ccccc2Cl)c1 [CSN5i-2e, (5R,6R)-5-(2′-chloro-5-(((2-(methoxymethyl)phenyl)amino)methyl)-[1,1′-biphenyl]-2-yl)-6,7,8,9-tetrahydro-5H-imidazo[1,5-a]azepin-6-ol]
EC50 (HCC-1833 cells): 10.6 µM | EC50 (HCT-15, HCT-15 cells): 6.96 µM | EC50 (HD-MY-Z cells): 3.49 µM | EC50 (HEC-50B, HEC-50B cells): 13 µM | EC50 (HEC-108 cells): 14.7 µM | EC50 (HEC-151 cells): 11.1 µM | EC50 (HEC-265 cells): 14.2 µM | EC50 (HEL 92.1.7, HEL 92.1.7 cells): 7.27 µM | EC50 (HEL, HEL cells): 6.98 µM | EC50 (HEY A8, Hey-A8 cells): 12.9 µM | EC50 (HL-60, HL-60 cells): 15.7 µM | EC50 (HLC-1 cells): 11.5 µM | EC50 (HLE, HLE cells): 15.5 µM | EC50 (HLF, HLF cells): > 30 µM | EC50 (HMC-1-8 cells): 15.3 µM | EC50 (HPBALL, HPB-ALL cells): 14.1 µM | EC50 (HRT-18, HRT-18 cells): 9.14 µM | EC50 (HSC-2, HSC-2 cells): 23.9 µM | EC50 (HSC-3, HSC-3 cells): 12.7 µM | EC50 (HSC-4, HSC-4 cells): 10 µM | EC50 (HT-29, HT-29 cells): 12.4 µM | EC50 (Hep 3B2.1-7 cells): 11.1 µM | EC50 (Hep3B, Hep3B cells): 14.2 µM | EC50 (Hs 294T, Hs 294T cells): 11.7 µM | EC50 (Hs766T, Hs 766T cells): 24.2 µM | EC50 (Hs 852.T cells): 15.4 µM | EC50 (Hs 936.T cells): 17.2 µM | EC50 (Hs 944.T cells): 15.3 µM | EC50 (HuG1-N cells): 10.6 µM | EC50 (HuP-T3, HUP-T3 cells): 23.8 µM | EC50 (HuP-T4, HUP-T4 cells): 11 µM | EC50 (Huh-7, HuH-7 cells): 9.02 µM | EC50 (IGR-37, IGR-37 cells): 17.6 µM | EC50 (IGR-39, IGR-39 cells): 10.6 µM | EC50 (IGROV-1, IGROV1 cells): 12.3 µM | EC50 (IPC-298, IPC-298 cells): 10.3 µM | EC50 (Ishikawa, Ishikawa cells): 9.64 µM | EC50 (J82, J82 cells): > 30 µM | EC50 (JHH7, JHH-7 cells): 16.4 µM | EC50 (JHH-4, JHH-4 cells): 16.2 µM | EC50 (JHOM-1 cells): 8.92 µM | EC50 (JHOS-2 cells): > 30 µM | EC50 (JHUEM-2 cells): 15.3 µM | EC50 (JIMT-1, JIMT-1 cells): 13.1 µM | EC50 (JVM-2, JVM-2 cells): 13 µM | EC50 (K029AX cells): 17 µM | EC50 (KARPAS-422, KARPAS-422 cells): 12.5 µM | EC50 (KATO III, KATO III cells): 9.94 µM | EC50 (KBM-7, KBM-7 cells): 8.38 µM | EC50 (KE-97, KE-97 cells): 7.93 µM | EC50 (KLE, KLE cells): 12.6 µM | EC50 (KMM-1, KMM-1 cells): 10.6 µM | EC50 (KMRC-1, KMRC-1 cells): 17.7 µM | EC50 (KMRC-20 cells): 18.5 µM | EC50 (KMS-11, KMS-11 cells): 28.6 µM | EC50 (KNS-62, KNS-62 cells): 15.4 µM | EC50 (KO52 cells): 18.3 µM | EC50 (KP-1N cells): 15 µM | EC50 (KS-1 cells): 15.6 µM | EC50 (KU-19-19, KU-19-19 cells): 16 µM | EC50 (KURAMOCHI cells): 10.6 µM | EC50 (KYSE-70, KYSE-70 cells): 10.4 µM | EC50 (KYSE-150, KYSE-150 cells): 10.7 µM | EC50 (KYSE-180, KYSE-180 cells): 14.1 µM | EC50 (KYSE-410, KYSE-410 cells): 15 µM | EC50 (Kasumi-3, Kasumi3 cells): 13 µM | EC50 (Kasumi-6 cells): 6.45 µM | EC50 (L3.3 cells): 20.2 µM | EC50 (L-363, L-363 cells): 9.54 µM | EC50 (L-428, L-428 cells): 11.8 µM | EC50 (LC-1F cells): 16.3 µM | EC50 (LCLC-103H, LCLC-103H cells): 8.84 µM | EC50 (LIM1899 cells): 10.3 µM | EC50 (LIM2099 cells): 11.4 µM | EC50 (LIM2405 cells): 9.94 µM | EC50 (LIM2550 cells): 6.3 µM | EC50 (LMSU cells): 7.62 µM | EC50 (LN-18, LN-18 cells): 13 µM | EC50 (LN-229, LN-229 cells): 8.07 µM | EC50 (LOU-NH91, LOU-NH91 cells): 11.2 µM | EC50 (LOX IMVI, LOX IMVI cells): 9.19 µM | EC50 (LP-1, LP-1 cells): 11.9 µM | EC50 (LS180, LS 180 cells): 10.5 µM | EC50 (LS-513, LS513 cells): 8.14 µM | EC50 (LUDLU-1, LUDLU-1 cells): > 30 µM | EC50 (Li-7, Li-7 cells): 23.7 µM | EC50 (Lu-65, LU65 cells): 12.5 µM | EC50 (Lu-99, LU99 cells): 9.78 µM | EC50 (M-07e, M-07e cells): 16 µM | EC50 (MCAS cells): 12.5 µM | EC50 (MCC14/2 cells): 9.96 µM | EC50 (MDA-MB-157, MDA-MB-157 cells): 14.7 µM | EC50 (MDA-MB-175-VII, MDA-MB-175-VII cells): 19.8 µM | EC50 (MDA-MB-231, MDA-MB-231 cells): 15.3 µM | EC50 (MDA-MB-415, MDA-MB-415 cells): 13.4 µM | EC50 (MDA-MB-435S, MDA-MB-435S cells): 12 µM | EC50 (MDA-MB-436, MDA-MB-436 cells): 10.1 µM | EC50 (MDA-MB-453, MDA-MB-453 cells): 6.48 µM | EC50 (MDA-MB-468, MDA-MB-468 cells): 10.7 µM | EC50 (MDST8, MDST8 cells): 11.2 µM | EC50 (ME-180, ME180 cells): 11.9 µM | EC50 (MEL-HO cells): 10.9 µM | EC50 (MEL-JUSO, MEL-JUSO cells): 18.1 µM | EC50 (MES-SA, MES-SA cells): 12.5 µM | EC50 (MFE-280, MFE-280 cells): 10.8 µM | EC50 (MFE-296, MFE-296 cells): 10.5 µM | EC50 (MFM-223, MFM223 cells): 17.2 µM | EC50 (MINO, Mino cells): 7.97 µM | EC50 (MKN-1, MKN1 cells): 9.59 µM | EC50 (MKN-45, MKN-45 cells): 26.8 µM | EC50 (ML-2, ML-2 cells): 6.14 µM | EC50 (MM127 cells): 6.45 µM | EC50 (MM138 cells): 10.4 µM | EC50 (MM253 cells): 26.5 µM | EC50 (MM370 cells): 23 µM | EC50 (MM383 cells): 11.2 µM | EC50 (MM386 cells): 25.5 µM | EC50 (MM415 cells): 13.3 µM | EC50 (MM426 cells): 24.4 µM | EC50 (MM466 cells): 24.5 µM | EC50 (MM473, MM473 cells): 10.4 µM | EC50 (MM485 cells): 11.2 µM | EC50 (MM537 cells): 14 µM | EC50 (MM576 cells): 15.8 µM | EC50 (MM603 cells): 9.82 µM | EC50 (MOG-G-CCM cells): 10.9 µM | EC50 (MOLM-13, MOLM-13 cells): 6.66 µM | EC50 (MOLP-8, MOLP-8 cells): 6.91 µM | EC50 (MOLT-16, MOLT-16 cells): 5.34 µM
